This experiment addresses PehR (Ralstonia pseudosolanacearum, UniProt Q8XVM3). Description: biochemical.

The structures appear in SMILES notation.

Sequence of PehR (Q8XVM3 1-570): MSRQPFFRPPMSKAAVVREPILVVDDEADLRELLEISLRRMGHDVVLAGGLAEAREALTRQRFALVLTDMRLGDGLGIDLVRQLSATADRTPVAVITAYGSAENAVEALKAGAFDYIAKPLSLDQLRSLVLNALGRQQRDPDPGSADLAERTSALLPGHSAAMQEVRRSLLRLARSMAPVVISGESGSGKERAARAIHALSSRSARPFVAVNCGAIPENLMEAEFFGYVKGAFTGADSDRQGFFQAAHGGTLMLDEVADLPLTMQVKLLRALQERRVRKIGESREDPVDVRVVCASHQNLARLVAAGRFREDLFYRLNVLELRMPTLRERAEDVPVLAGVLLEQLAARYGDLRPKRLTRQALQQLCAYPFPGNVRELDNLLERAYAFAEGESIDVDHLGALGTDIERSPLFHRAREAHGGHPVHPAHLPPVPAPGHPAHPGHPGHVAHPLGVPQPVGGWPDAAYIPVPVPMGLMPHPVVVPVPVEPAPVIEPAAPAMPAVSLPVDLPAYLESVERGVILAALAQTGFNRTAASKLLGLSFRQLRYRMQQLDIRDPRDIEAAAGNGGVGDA

The Kd is the concentration at which binding is half-saturated. Lower therefore signals higher affinity. `Nc1ncnc2c1ncn2[C@@H]1O[C@H](COP(=O)(O)OP(=O)(O)OP(=O)(O)O)[C@H]2OC3(O[C@H]21)C([N+](=O)[O-])=CC(=[N+]([O-])O)C=C3[N+](=O)[O-]` (stereo partly shown) [TNP-ATP]: the dissociation constant (Kd) turned out to be 106 µM.

Values taken from paper PMC10535256 (ACS Omega, 2023).
